{
  "source": "paper PMC9112336",
  "about": "(ACS infectious diseases, 2022)",
  "format_in_all_cases": "cell-based",
  "key": {"[1]": {"system": "vesicular acidification in HEK293 cells"}, "[2]": {"system": "mCherry-LAMP1 expressing HEK293 cells"}, "[3]": {"system": "mCherry-LAMP1 expressing HEK293 cells", "remark": "listed apart in the source"}, "[4]": {"system": "endocytic vesicle pH in HEK293 cells"}, "[5]": {"system": "mCherry-LAMP1 expressing HEK293 cells", "remark": "listed apart in the source"}, "[6]": {"system": "GFP-Rab5 expressing HEK293 cells"}},
  "data": [
    {"compound": "COc1cc2c(O)c3c(c(-c4ccc5c(c4)OCO5)c2cc1OC)C(=O)OC3", "note": "[1.1, diphyllin]", "values": [
      {"measurement": "acidification activity after the 24 h washout period", "setting": "[1]", "result": "90.2 ± 11.5", "unit": "%"},
      {"measurement": "acidification activity, initial response (immediate post washout)", "setting": "[1]", "result": "57.5 ± 9.0", "unit": "%"}
    ]},
    {"compound": "Cc1cccc(/C=N/Nc2cc(N3CCOCC3)nc(OCCc3ccccn3)n2)c1", "note": "[Apilimod, apilimod]", "values": [
      {"measurement": "effect on LAMP1+ structures compared to DMSO", "setting": "[2]", "result": "significantly altered LAMP1 structures"}
    ]},
    {"compound": "CO/C1=C\\C(C)=C\\[C@@H](C)[C@@H](O)[C@@H](C)C/C(C)=C/C=C/[C@H](OC)[C@@H]([C@@H](C)[C@@H](O)[C@H](C)[C@@]2(O)C[C@@H](O)[C@H](C)[C@@H](C(C)C)O2)OC1=O", "note": "[bafilomycin, bafilomycin A1]", "values": [
      {"measurement": "reversibility of inhibition of vesicular acidification", "setting": "[1]", "result": "full recovery of acridine orange pH-dependent shift to red was not observed"},
      {"measurement": "average number of dilated vesicles >1 μm per cell, pre-treatment before apilimod", "setting": "[3]", "result": "~1"},
      {"measurement": "large (>1 μm) vesicle pHrodo fluorescence", "setting": "[4]", "result": "significant decrease"},
      {"measurement": "average number of large, dilated vesicles per cell, treatment after apilimod", "setting": "[5]", "result": "~1"},
      {"measurement": "average size of Rab5+ punctate vesicles", "setting": "[6]", "result": 400, "unit": "nm"}
    ]}
  ]
}
